Patent US20160346226A1, “Therapeutic Applications Of Prenylated Stilbenoids Against Rotavirus Infections” (ARKANSAS STATE UNIVERSITY, priority 2015, published 2016)
Where two headings read alike, the source gives them in different places.

How the values were obtained:
[1] = test system: cannabinoid receptor 1 (CB1R); conditions: cited from earlier work; for mode of action at CB1R: reference [19]; for modulation of the cannabinoid receptors: references [18, 19]
[2] = test system: mammalian cells; conditions: all cell lines, reference [3]; cited from earlier work
[3] = test system: human leukemia HL-60 cells; conditions: reference [2]; cited from earlier work
[4] = test system: RV SA114F; test: Focus forming unit (FFU) viral titer of supernatants of RV-infected HT29.f8 cells treated with stilbenoids; type: cell-based, simian rotavirus SA114F
[5] = test system: RV SA114F; test: Plaque forming unit (PFU) assay of the same supernatants; type: cell-based, simian rotavirus SA114F; conditions: 20 μM, average of three experiments, HT29.f8 supernatants
[6] = test system: RV-infected MA104 cells; conditions: reference [29]; cited from earlier work
[7] = test system: rotavirus (Wa) infected HT29.f8 cells; test: TEM observations of cell ultrastructure of rotavirus (Wa) infected HT29.f8 cells; type: cell-based, human; conditions: 20 μM, 18 hpi
From the text: Observations of Cell Ultrastructure with TEM of Rotavirus (RV) Infected HT29.f8 Cells w/without t-A3
Mitochondria (M), rotavirus particles (RV), and a nucleolus (N) can be seen. Final Magnification=8,300×.

Structure (SMILES) | mode of action at CB1R [1] | modulation of the cannabinoid receptors [1] | change in virus titer (FFU) compared to RV-infected control [4] | difference in PFU/ml versus RV only and RV with DMSO [5] | further results
CC(C)/C=C/c1c(O)cc(/C=C/c2ccc(O)c(O)c2)cc1O [t-A1, Trans-Arachidin-1] | antagonize CB1R agonists by both competitive and non-competitive mechanisms | modulate the cannabinoid receptors at micromolar levels | one hundred fold decrease in virus titer | one hundred fold difference | cytotoxicity [2]: highest but moderate cytotoxicity; programmed cell death [3]: inducing programmed cell death
CCCCCCCCCCCCCCOc1ccc(C(=O)O)o1 [TOFA, 5-(tetradecyloxy)-2-furoic acid] | – | – | – | – | virus infectivity and viral RNA production [6]: dose-dependent reduction
CC(C)/C=C/c1c(O)cc(/C=C/c2ccc(O)cc2)cc1O [t-A3, trans-arachidin-3] | competitive cannabinoid receptor 1 (CB1R) antagonist | modulate the cannabinoid receptors at micromolar levels | one hundred fold decrease in virus titer | one hundred fold difference | RV particles observed that were noninfectious, immature enveloped particles [7]: about 50%; autophagic vesicles (AV) ([7]; RV(Wa)): absent; mitochondria ultrastructure ([7]; RV(Wa)): Many mitochondria present with normal ultrastructure; nucleoli ([7]; RV(Wa)): Nucleoli present; vesicles in the cytoplasm ([7]; RV(Wa)): not as many as in the RV(Wa) only
Oc1ccc(/C=C/c2cc(O)cc(O)c2)cc1 [t-Res, Trans-resveratrol, reference compound] | – | – | – | no statistical differences | change in virus titer (FFU) compared to RV-infected control ([4]; 20 μM, 24 hours post-infection, HT29.f8 cells): no change in the virus titer
